Measured values reported in patent publication US20100113347A1 (priority 2007, published 2010).

What was measured:
[1] = tested on: mice with alloxan diabetes; experiment: Blood glucose level in mice with alloxan diabetes (Example 1); assay type: in vivo; conditions: exenatide 7.5 mcg/kg
Protocol: (§1) Diabetes was induced in white mice by a single intraperitoneal administration of alloxan in a dose of 135 mg/kg. […] Control animals received injections of saline solution. By day 31 of the experiment, the levels of blood glucose and cholesterol were measured after an overnight fast. Data are presented as a mean±standard deviation (n=5) of the measured levels of glucose or cholesterol. […] To determine the therapeutic effect of lowering the level of glucose, the following formula was used:
ΔGlucose=Glucosemedication−Glucosecontrol.
(§2) Statistical differences of the obtained results were assessed with the use of Student's t-test.

[2] = tested on: mice with alloxan diabetes; experiment: Blood cholesterol level in mice with alloxan diabetes (Example 1); assay type: in vivo; conditions: exenatide 7.5 mcg/kg
Protocol: as §1, with “used: […]” for “used:”
To determine the therapeutic effect of lowering the level of cholesterol, the following formula was used:
ΔCholesterol=Cholesterolmedication−Cholesterolcontrol.
as §2

[3] = day 31, after overnight fast, s.c. twice daily for 30 days, dalargin 8.8 mcg/kg
[4] = day 31, after overnight fast, s.c. twice daily for 30 days, dalargin 8.8 mcg/kg, mean±SD, n=5
[5] = dalargin 8.8 mcg/kg s.c. twice daily for 30 days

**Q.** How did the “Δ Glucose (Glucose medication − Glucose control)” value [1, 3] turn out when “tirozil-2-alanil-glycil-phenylalanyl-leucil-arginine [Dalargin]” was run?
**A.** The value was -0.9 mmol/L.

**Q.** And the Glucose [1, 4]?
**A.** Its Glucose is 10.6 ± 1.3 mmol/L.

**Q.** What about the “effect on blood glucose levels after an overnight fast (in words)” value [1, 5] of the same substance?
**A.** The value was “inefficient”.

**Q.** What about the “Δ Cholesterol (Cholesterol medication − Cholesterol control)” value [2, 3] of the same substance?
**A.** Its value is -0.27 mmol/L.

**Q.** And the Cholesterol [2, 4]?
**A.** The Cholesterol was 2.34 ± 0.16 mmol/L.

**Q.** And the “effect on blood cholesterol after an overnight fast (in words)” value [2, 5]?
**A.** Its value is “inefficient”.
